Reference: patent publication US4470993A, “Therapeutical use of known 5-aminomethyl oxazolidine-2-one derivatives” (Delalande S.A., priority 1982, dated 1984)

How the values were obtained:
[1] = Acute toxicity, oral, in mice (Miller and Tainter); conditions: mouse, in vivo, read-out: Acute toxicity LD 50
Experimental: The acute toxicity is determined orally on mice according to the method described by MILLER and TAINTER in Proc. Soc. Exp. Biol. Med. 57, 261 (1944).

A type monoamine oxidase = test: Ex vivo monoamine oxidase inhibition in rat brain homogenate, serotonine substrate; parameters: unit not given here; conditions: rats, 5 mg/kg p.o.; for Monoamine oxidase inhibition effect, A Type monoamine oxidase, 8 hours: 8 hours after administration; for Monoamine oxidase inhibition effect, A Type monoamine oxidase, 24 hours: 24 hours after administration; for Monoamine oxidase inhibition effect, A Type monoamine oxidase, max.: maximum effect observed between 30 minutes and 8 hours
Experimental: (§1) This activity has been shown ex vivo on rats to which are orally administered the compounds employed in the invention as a 0.5% suspension in methylcellulose. Then the rats are decapitated at various times (30 mn, 1 hour, 2 hours, 4 hours, 8 hours and 24 hours after the administration). The brains are taken up, weighed and homogeneized and the determination of the monoamine oxidase inhibition effect is carried out by using serotonine (specific substrate of the A type monoamine oxidase) and phenylethylamine (specific substrate of B type monoamine oxidase) according to the method described by J. P. KAN and M. STROLIN-BENEDETTI in Life Sciences 26, 2165 (1980).
(§2) To illustrate the invention, in table below the results thus obtained are given. (The maximum effect is that observed between 30 minutes and 8 hours).

B type monoamine oxidase = test: Ex vivo monoamine oxidase inhibition in rat brain homogenate, phenylethylamine substrate; parameters: unit not given here; conditions: rats, 5 mg/kg p.o.; for Monoamine oxidase inhibition effect, B Type monoamine oxidase, 8 hours: 8 hours after administration; for Monoamine oxidase inhibition effect, B Type monoamine oxidase, 24 hours: 24 hours after administration; for Monoamine oxidase inhibition effect, B Type monoamine oxidase, max.: maximum effect observed between 30 minutes and 8 hours
Experimental: as §1, §2

Row | Structure (SMILES) | LD50 [1] | Monoamine oxidase inhibition effect, A Type monoamine oxidase, 8 hours (A type monoamine oxidase) | Monoamine oxidase inhibition effect, A Type monoamine oxidase, 24 hours (A type monoamine oxidase) | Monoamine oxidase inhibition effect, A Type monoamine oxidase, max. (A type monoamine oxidase) | Monoamine oxidase inhibition effect, B Type monoamine oxidase, 8 hours (B type monoamine oxidase) | Monoamine oxidase inhibition effect, B Type monoamine oxidase, 24 hours (B type monoamine oxidase) | Monoamine oxidase inhibition effect, B Type monoamine oxidase, max. (B type monoamine oxidase)
1 | CNCC1CN(c2ccc(OCC3CCCCC3)cc2)C(=O)O1 (stereo not shown) [cyclohexylmethyl, N--methylamino] | > 2000 mg/kg | 17 | 6 | 21 | 42 | 6 | 67
2 | NCC1CN(c2ccc(OCc3ccccc3)cc2)C(=O)O1 (stereo not shown) [benzyl, amino] | > 2000 mg/kg | 4 | 4 | 19 | 69 | 45 | 85
3 | NCC1CN(c2ccc(OCC3CCCCC3)cc2)C(=O)O1 (stereo not shown) [cyclohexylmethyl, amino] | > 2000 mg/kg | 13 | 5 | 23 | 60 | 3 | 81
4 | NCC1CN(c2ccc(OCc3cccc(Cl)c3)cc2)C(=O)O1 (stereo not shown) [m-chlorobenzyl, amino] | > 2000 mg/kg | 18 | 6 | 30 | 85 | 67 | 88
5 | NCC1CN(c2ccc(OCC3CCCC3)cc2)C(=O)O1 (stereo not shown) [cyclopentylmethyl, amino] | > 2000 mg/kg | 9 | 0 | 30 | 17 | 2 | 78
6 | NCC1CN(c2ccc(OCc3ccc(F)cc3)cc2)C(=O)O1 (stereo not shown) [p-fluorobenzyl, amino] | > 2000 mg/kg | 20 | 3 | 43 | 82 | 61 | 88
7 | CNCC1CN(c2ccc(OCc3cccc(Cl)c3)cc2)C(=O)O1 (stereo not shown) [m-chlorobenzyl, N--methylamino] | > 2000 mg/kg | 12 | 1 | 28 | 67 | 27 | 83
8 | CNCC1CN(c2ccc(OCc3ccc(F)cc3)cc2)C(=O)O1 (stereo not shown) [p-fluorobenzyl, N--methylamino] | > 2000 mg/kg | 23 | 0 | 44 | 63 | 27 | 85
9 | CC(C)CCOc1ccc(N2CC(CN)OC2=O)cc1 (stereo not shown) [3-methylbutyl, amino] | > 2000 mg/kg | 2 | 0 | 29 | 8 | 1 | 69
10 | CNCC1CN(c2ccc(OCc3ccccc3)cc2)C(=O)O1 (stereo not shown) [benzyl, N--methylamino] | > 2000 mg/kg | 11 | 10 | 23 | 43 | 31 | 78
